Marks after values point to notes of the source that are not given here. Blank lines part the entries; values can stand above or below the molecule they belong to.
Assays:
AR = AR antagonistic activity: AR / PSA ARE1 luciferase reporter gene assay in transfected LNCaP cells stimulated with 1 nM DHT; format: cell-based; details: 24 h, normalised to 0.1% DMSO and 30 µM enzalutamide
Experimental: LNCaP cells were plated in a 6-well plate (Corning, 3516) at 8 × 10^5 cells/well.
AR and PSA ARE1 reporter gene plasmids (Bio (Anhui) Co., Ltd.) and transfection reagents Lipo3000 and P3000 (Lipofectamine™ 3000) (a total of 2.5 µg of plasmids, i.e., 1.25 µg of each plasmid, were added to each well) were left to stand and incubated for 10 min, and then 250 µL of the above transfection reagents were added dropwise to each well containing cells and co-incubated with the cells for 24 h.
The cells were washed with PBS, and the medium was replaced with a phenol red-free RPMI-1640 medium containing 5% carbon adsorption serum (or 10% fetal bovine serum and 1% penicillin and streptomycin). The cells were re-plated onto a 96-well plate (Corning, 3603) according to the number of cells plated (2 × 10^4 cells/well).
After cell plating, the test compound (or DMSO or positive control) was added. After at least 30 min of incubation, DHT (dihydrotestosterone) was added to the culture system at a final concentration of 1 nM. The culture system was then incubated in a carbon dioxide incubator.
Test compound: 10 mM stock solution, with a final concentration of 3.3 µM or 6.7 µM. Negative control: 0.1% DMSO. Positive control: 30 µM enzalutamide.
After the test compound (or DMSO or positive control) and DHT were co-incubated for 24 h, the luciferase signal was detected using the Vazyme Bright-Lite substrate. The medium was added at 70 µL/well, and the plate was shaken for 2 min, followed by reading of the luciferase signal.
Assay robustness was confirmed using the DMSO and low concentration control data: Ave_H = Ave(DMSO) [formula] Ave_L = Ave (30μMenzalutamide) [formula] Inhibition rate (%) = (Ave_H−Sample)/(Ave_H−Ave_L) × 100% [formula] Ave_H: the measurement of the negative control (0.1% DMSO); Ave_L: the measurement of the positive control (30 µM enzalutamide); Sample: the measurement of the test compound; The corresponding activity test results for the test compounds were specified in Table 1. Table 1. Corresponding activity test results for compounds disclosed herein

Whole blood stability = details: human
Experimental: 1 mM stock solutions of the test compounds were prepared in DMSO, and a 1 mM stock solution of the reference compound propantheline was prepared in acetonitrile.
4 µL of test compound (or reference compound) stock solution was added to 796 µL of pre-incubated human blood (whole blood) at a final concentration of 5 µM. The final concentration of the solvent was 0.5%. At different time points (including 5 min, 15 min, 30 min, 60 min, and 120 min), a 50 µL aliquot of the whole blood containing the sample was added to a new tube and incubated in a 37 °C water bath with shaking at 60 rpm. The treatment was performed in duplicate. At designated time points, 300 µL of room-temperature quenching solution (a solution of acetonitrile containing internal standards (100 nM alprazolam, 500 nM labetalol, and 2 µM ketoprofen)) was added to the whole blood sample containing the sample to terminate the reaction. 50 µL of whole blood containing the sample was added to a new tube containing 300 µL of room-temperature quenching solution to prepare a sample at 0 min. All samples were vortexed for 5 min. The samples in the plate were centrifuged at 3220 g for 30 min at 4 °C to precipitate the proteins. 100 µL of the supernatant was transferred to a new 96-well plate containing 100 µL of water for LC-MS/MS analysis.
The peak area ratio was determined by using an extracted ion chromatogram. The proportion of remaining compound at each time point was calculated according to the following formula: Remaning proporion t min (%) = peak area ratio t min / peak area ratio 0 min × 100% [formula] • Peak area ratio t min: peak area ratio of reference compound to test compound at t min; • Peak area ratio 0 min: peak area ratio of reference compound to test compound at time zero.
The slope value was determined by linear regression on the curve of the natural logarithm of the remaining proportion of the test compound versus the incubation time.
Determination of in vitro half-life (in vitro t1/2) from the slope value: in vitro t1/2 = 0.693/k [formula] in the formula, k is the rate constant (k = -slope value)

[1] = Metabolic stability assay in liver microsomes; format: in vitro ADME; details: human liver microsomes, pH 7.4, human liver microsome 0.5 mg/mL, 1 mM NADPH, compound 1 µM, 37 °C; for microsomal CLint at 1 µM: read-out: In vitro Clint; for half-life at 1 µM: read-out: In vitro T1/2
Experimental: The metabolic stability of compounds disclosed herein in liver microsomes was determined using the following method.
• 1. Liver microsome source: Human liver microsome (Corning, 452117) • 2. Na2HPO4 (Tianjin Guangfu Fine Chemical Research Institute, 20180130) • 3. KH2PO4 (Tianjin Guangfu Fine Chemical Research Institute, 20180920) • 4. MgCl2 (Tianjin Guangfu Fine Chemical Research Institute, 20191216) • 5. NADPH (Solarbio, 1216C022) • 6. Positive control compound verapamil (Sigma, MKBV4993V) • 7. AB Sciex Triple Quad 4000 liquid chromatography-mass spectrometry system
1. Preparation of 100 mM phosphate-buffered saline (PBS): 7.098 g Na2HPO4 was dissolved in 500 mL of purified water by sonication to give solution A. 3.400 g of KH2PO4 was dissolved in 250 mL of purified water by sonication to give solution B. Solution A was placed on a stirrer, and solution B was added slowly until the pH reached 7.4, so as to give a 100 mM PBS buffer. 2. Preparation of reaction system The reaction system was prepared according to the table below.
3. The reaction system was pre-incubated in a 37 °C water bath for 10 min. 40 µL of 10 mM NADPH solution (NADPH was dissolved in 100 mM phosphate-buffered saline) was added to the reaction system, with the final concentration of NADPH being 1 mM. A negative control was prepared by replacing the NADPH solution with 40 µL of phosphate-buffered saline. The negative control was used to exclude the effect of the chemical stability of the compound itself. 4. The reaction was initiated by adding 4 µL of 100 µM compound disclosed herein or positive control compound verapamil to the reaction system at a final concentration of 1 µM. 5. After 0.5 min, 15 min, 30 min, 45 min, and 60 min of mixing well by using a vortex oscillator, 50 µ L of the incubated sample was taken out, and glacial acetonitrile containing an internal standard of 4 folds was added to terminate the reaction. The sample was centrifuged at 3,220 g for 45 min. 90 µL of the supernatant was transferred to a feeding plate after the centrifugation was completed, and 90 µL ultrapure water was added. The mixture was well mixed for LC-MS/MS analysis.
All data were calculated by using Microsoft Excel software. The peak areas were determined by using an extracted ion chromatogram. The in vitro half-life (T1/2) of the test compound was determined by linear fitting of the natural logarithm of the elimination proportion of the test compound over time. In vitro half-life (T1/2) was calculated by the slope k: in vitro T1/2 = 0.693/k [formula]
The in vitro intrinsic clearance (in vitro CLint, unit: µL/min/mg protein) was calculated using the following formula: in vitro CLint = k × volume of incubation solution/enzyme protein content; [formula]

C57BL/6 mice = test: In vivo pharmacodynamic study 1: hair growth scoring in shaved telogen-phase mice, topical treatment; details: for Score (mean±SD): hair growth score 0-5, topical twice daily, compound 001 2 wt%, compound 008 0.5 wt%
Text: Vehicle: propylene glycol/ethanol (30:70, v/v)
Animal information: C57BL/6 mice (male, aged 4-6 weeks, about 18-20 g), purchased from Shanghai Lingchang Biotechnology Co., Ltd. The mice were bred in an SPF-level environment within independently ventilated cages.
Skin preparation: After 1-2 weeks of acclimation, the hairs in a 2 cm × 3 cm area of the back of the mice were shaved to confirm that the hairs of the mice were in the telogen phase (the skin was pink) and the skin was not damaged.
Treatment: On day 3 after shaving, the mice were grouped for treatment. […] The control group received the control solvent. 12 mice were in each group.
The mice were weighed on days 10, 13, 18, 21, 25, and 30, and the hair growth state was scored and photographed.
The scoring criteria are as follows: • 0: no growth, with pink skin in the shaved area; • 1: the skin in the shaved area was gray (an increase of less than 20%); • 2: the skin in the shaved area was black (more than 20% but less than 40%); • 3: the skin in the shaved area was black with a little hair growth (more than 40% but less than 60%); • 4: the skin in the shaved area was black with partial hair growth (more than 60% but less than 80%); • 5: basically complete hair growth (80%-100% growth) in the shaved area.

[2] = treatment concentration: 6.7 µM
[3] = treatment concentration: 3.3 µM
[4] = at the investigated doses (001 2%, 008 0.5%, BID topical)

SMILES: COc1cc(NC(=O)C(C)(O)C(=O)OC(C)(C)C)cnc1C#N (stereo not drawn) [Compound 048, tert-Butyl 3-[(6-cyano-5-methoxypyridin-3-yl)amino]-2-hydroxy-2-methyl-3-oxo-propanoate]
AR antagonism (inhibition rate, %) (AR; [2]): 62.18^b %

SMILES: CCCOC(=O)[C@](C)(O)C(=O)Nc1cnc(C#N)c(C(F)(F)F)c1 [Compound 005, propyl (2R)-3-[[6-cyano-5-(trifluoromethyl)-pyridin-3-yl]amino]-2-hydroxy-2-methyl-3-oxopropanoate]
AR antagonism (inhibition rate, %) (AR; [3]): 58.52^a %

SMILES: CCCOC(=O)C(O)(C(=O)Nc1cnc(C#N)c(C(F)(F)F)c1)C(F)(F)F (stereo not drawn) [Compound 010, Propyl 2-[[6-cyano-5-(trifluoromethyl)-pyridin-3-yl]carbamoyl]-3,3,3-trifluoro-2-hydroxypropanoate]
AR antagonism (inhibition rate, %) (AR; [3]): 82.14^a %

half-life at 5 µM (Whole blood stability): 349 min
SMILES: CC(C)OC(=O)C(C)(O)C(=O)Nc1cnc(C#N)c(C(F)(F)F)c1 (stereo not drawn) [Compound 013, Isopropyl 3-[[6-cyano-5-(trifluoromethyl)-pyridin-3-yl]amino]-2-hydroxy-2-methyl-3-oxopropanoate]
AR antagonism (inhibition rate, %) (AR; [3]): 90.0^a %

microsomal CLint at 1 µM [1]: 60.4 µL/min/mg
half-life at 1 µM [1]: 22.9 min
SMILES: CCOC(=O)[C@](C)(O)C(=O)Nc1cnc(C#N)c(C(F)(F)F)c1 [Compound 003, ethyl (2R)-3-[[6-cyano-5-(trifluoromethyl)pyridin-3-yl]amino]-2-hydroxy-2-methyl-3-oxopropanoate]
AR antagonism (inhibition rate, %) (AR; [3]): 75.26^a %

SMILES: CSc1cc(NC(=O)C(C)(O)C(=O)OC(C)(C)C)cnc1C#N (stereo not drawn) [Compound 049, tert-Butyl 3-[(6-cyano-5-methylthiopyridin-3-yl)amino]-2-hydroxy-2-methyl-3-oxo-propanoate]
AR antagonism (inhibition rate, %) (AR; [2]): 90.02^b %

SMILES: CCCCOC(=O)C(C)(O)C(=O)Nc1ccc(C#N)c(C(F)(F)F)c1 (stereo not drawn) [Compound 022, Butyl 3-[4-cyano-3-(trifluoromethyl)anilino]-2-hydroxy-2-methyl-3-oxo-propanoate]
AR antagonism (inhibition rate, %) (AR; [3]): 81.05^a %

SMILES: CCOC(=O)C(O)(C(=O)Nc1ccc(C#N)c(SC)c1F)C(F)(F)F (stereo not drawn) [Compound 015, Ethyl 2-[(4-cyano-2-fluoro-3-methylsulfanyl-phenyl)carbamoyl]-3,3,3-trifluoro-2-hydroxy-propanoate]
AR antagonism (inhibition rate, %) (AR; [3]): 65.06^a %

SMILES: CCOC(=O)C(C)(O)C(=O)Nc1cnc(C#N)c(SC)c1 (stereo not drawn) [Compound 016, Ethyl 3-[(6-cyano-5-methylthio-pyridin-3-yl)amino]-2-hydroxy-2-methyl-3-oxopropanoate]
microsomal CLint at 1 µM [1]: 102 µL/min/mg
half-life at 1 µM [1]: 13.6 min

microsomal CLint at 1 µM [1]: 35.5 µL/min/mg
half-life at 1 µM [1]: 39.1 min
signs of erythema, dehiscence, desquamation, and the like on the skin (C57BL/6 mice; [4]): no signs
SMILES: CCOC(=O)C(O)(C(=O)Nc1cnc(C#N)c(C(F)(F)F)c1)C(F)(F)F (stereo not drawn) [Compound 008, Ethyl 2-[[6-cyano-5-(trifluoromethyl)-pyridin-3-yl]carbamoyl]-3,3,3-trifluoro-2-hydroxypropanoate]
AR antagonism (inhibition rate, %) (AR; [3]): 86.95^a %
Score (mean±SD) (C57BL/6 mice; Day 0): 0
Score (mean±SD) (C57BL/6 mice; Day 10): 0.4±0.5
Score (mean±SD) (C57BL/6 mice; Day 13): 0.6±0.5
Score (mean±SD) (C57BL/6 mice; Day 18): 1.0±0.6
Score (mean±SD) (C57BL/6 mice; Day 21): 1.1±0.7
Score (mean±SD) (C57BL/6 mice; Day 25): 1.9±1.5
Score (mean±SD) (C57BL/6 mice; Day 30): 2.8±2.1
impact on the body weight of the mice (C57BL/6 mice; [4]): no significant impact
effect on mouse hair growth (C57BL/6 mice; compound 001 at 2%, compound 008 at 0.5%, BID topically at 20 µL/cm^2): significant promoting effect
day of the treatment from which hair growth was significantly promoted (C57BL/6 mice; vs. vehicle control, 001 P < 0.01, 008 P < 0.05): ≥ 13 days

SMILES: CCCCOC(=O)C(C)(O)C(=O)Nc1ccc(Cl)c(C(F)(F)F)c1 (stereo not drawn) [Compound 023, Butyl 3-[4-chloro-3-(trifluoromethyl)anilino]-2-hydroxy-2-methyl-3-oxo-propanoate]
AR antagonism (inhibition rate, %) (AR; [3]): 52.26^a %

SMILES: CCOC(=O)c1cccc(NC(=O)C(C)(O)C(=O)Nc2cnc(C#N)c(C(F)(F)F)c2)n1 (stereo not drawn) [Compound 032, Ethyl 6-(3-((6-cyano-5-(trifluoromethyl)pyridin-3-yl)amino)-2-hydroxy-2-methyl-3-oxopropanamido)picolinate]
AR antagonism (inhibition rate, %) (AR; [3]): 47.7^a %

SMILES: CCCCOC(=O)[C@@](C)(O)C(=O)Nc1cnc(C#N)c(C(F)(F)F)c1 [Compound 006, butyl (2S)-3-[[6-cyano-5-(trifluoromethyl)pyridin-3-yl]amino]-2-hydroxy-2-methyl-3-oxopropanoate]
AR antagonism (inhibition rate, %) (AR; [3]): 93.92^a %

SMILES: CCCCOC(=O)C(O)(C(=O)Nc1cnc(C#N)c(C(F)(F)F)c1)C(F)(F)F (stereo not drawn) [Compound 011, Butyl 2-[[6-cyano-5-(trifluoromethyl)-pyridin-3-yl]carbamoyl]-3,3,3-trifluoro-2-hydroxypropanoate]
AR antagonism (inhibition rate, %) (AR; [3]): 88.48^a %

SMILES: CCCOC(=O)[C@@](C)(O)C(=O)Nc1cnc(C#N)c(C(F)(F)F)c1 [Compound 004, Propyl (2S)-3-[[6-cyano-5-(trifluoromethyl)-pyridin-3-yl]amino]-2-hydroxy-2-methyl-3-oxopropanoate]
AR antagonism (inhibition rate, %) (AR; [3]): 87.30^a %

SMILES: CC(C)(C)OC(=O)C(C)(O)C(=O)Nc1cnc(C#N)c(C(F)(F)F)c1 (stereo not drawn) [Compound 014, tert-Butyl 3-[[6-cyano-5-(trifluoromethyl)-pyridin-3-yl]amino]-2-hydroxy-2-methyl-3-oxopropanoate]
AR antagonism (inhibition rate, %) (AR; [3]): 90.3^a %

microsomal CLint at 1 µM [1]: 32.5 µL/min/mg
half-life at 1 µM [1]: 42.6 min
SMILES: CCOC(=O)[C@@](C)(O)C(=O)Nc1cnc(C#N)c(C(F)(F)F)c1 [Compound 002, Ethyl (2S)-3-[[6-cyano-5-(trifluoromethyl)pyridin-3-yl]amino]-2-hydroxy-2-methyl-3-oxopropanoate]
AR antagonism (inhibition rate, %) (AR; [3]): 89.16^a %
